Measured values taken from patent US10745370B2, “Farnesyl transferase inhibitors and uses thereof” (MACKAY MEMORIAL HOSPITAL, priority 2016, dated 2020).
Values joined by “and” are separate entries in the source; they are usually repeats but may differ in a detail not shown here. Equal entries are not always repeated. “Also recorded” adds a separate entry of the source. Values belong to the compound of their own block, whether it stands above or below them.

Columns and labels:
rat PFTase = target: T1, rat PFTase (Rattus norvegicus, UniProt Q02293+Q04631); experiment: Inhibition of farnesyl transferase (fluorescence assay); format: biochemical; conditions: mean ± SD of three independent experiments
T1 construct: purchased Jena Biosciences
Method: The assay was carried out in 384-well microplates with a final volume of 20 μl by the method modified from the previous report (Long et al., 2009). Briefly, 10 nM of rat PFTase (Jena Biosciences, Jena, Germany) was incubated with the tested compound or DMSO (1%) for 15 min, and then the mixture was added in a solution (50 mM Tris-HCl, pH 7.5, 5 mM MgCl2, 5 mM DTT, 0.1 mM ZnCl2, 0.2% octyl-β-D-glucopyranoside (Sigma, St. Louis, Mo.), 10 μM PFTase substrate dansyl-Gly-Cys-Val-Leu-Ser-OH, and 10 μM farnesyl pyrophosphate (Sigma, St. Louis, Mo.)) to initiate the reaction. The reaction was incubated at 37° C. for 30 min, and the fluorescence was detected by a M5 plate reader (Molecular Devices, CA, USA) at 340 nm excitation and 505 nm emission.

M2 macrophages [1] = experiment: Cell marker expression on M2 macrophages, flow cytometry; format: cell-based, human
Method: (§1) M1 differentiation of freshly isolated CD14^+ cells was induced by the addition of lipopolysaccharide (LPS), while M2 differentiation of freshly isolated CD14^+ cells was induced by the addition of IL-4. Then, the present compounds (e.g., Mib-5, 6, 7, 8, 9, or 10) were added at the indicated dosages. 6 days later, the population of the differentiated macrophages were then determined by cell viability analysis.
(§2) The expression of various types of cell markers, such as CD14, CD206, and CD80 expressed on the surface of macrophages, and CD1a, CD14, CD83, and HLA-DR expressed on the dendritic cells, were respectively detected by fluorescein isothiocyanate (FITC) and phycoerythrin (PE)-conjugated monoclonal antibodies in FACS caliber flowcytometer. Monoclonal antibodies used in this examples included anti-CD14 (IgG-FITC), anti-CD206 (IgG-FITC), anti-CD80-PE, anti-CD1a-PE, anti-CD83-PE and anti-human leukocyte antigen (HLA)-DR-PE. Results were analyzed by CellQuest software.

macrophages [2] = experiment: Trypan blue exclusion test on macrophages; format: cell-based; conditions: trypan blue analysis, FIG. 2
Method: (§3) Mononuclear cells (MNCs) were separated from the peripheral blood of healthy donors obtained with written consent by use of Ficoll-Hypaque density centrifugation, followed by positive selection with magnetic anti-CD14 microbeads.
(§4) The isolated CD14^+ cells were cultivated in Minimum Essential Medium (MEM medium) supplemented with 10% fetal bovine serum (FBS), 100 ng/ml granulocyte-macrophage colony-stimulating factor (GM-CSF, Gentaur), and 50 ng/ml interleukin-4 (IL-4, R&D), and kept in an environment of 37° C. with 5% CO2/95% air.
(§5) To evaluate the effects of the present compound on dendritic cells, the CD14^+ cells were respectively treated with 10 μM of test compound (i.e., Mib-5, Mib-6, Mib-7, Mib-8, Mib-9, and Mib-10) on day 1. Then, on day 3, the cultured medium in each well was replenished by adding half the volume of the cultured medium containing the same treatment as indicated above. Then, on day 6, a cytokine cocktail containing IL-1, IL-6, and tumor necrosis factor-α (TNF-α) was added to induce maturation. On day 7, the differentiated dendritic cells were collected and subjected to further assays, including viability assay, morphology observation, and cell marker staining.
(§6) As to the effects of the present compound on macrophages, the CD14^+ cells were cultivated and treated as indicated above except the addition of cytokine cocktail on day 6. The macrophages were collected on day 6 and subjected to further assays, including viability assay, trypan blue exclusion test, morphology observation, cell marker staining, and phagocytotic activity analysis.
(§7) The dye exclusion test is used to determine the number of viable cells present in a cell suspension. […] In this test, the cells were first treated with a test compound (i.e., Mib-5, 6, 7, 8, 9 or 10) for a certain period of time (e.g., 72 hours), then the cells were harvested and re-suspended in suitable buffer solution. The cell suspension was then mixed with trypan blue dye and then visually examined to determine whether cells had taken up or excluded the dye. A viable cell will have a clear cytoplasm, whereas a nonviable cell will have a blue cytoplasm. The concentration required to reduce viability by 50% (IC50) after 72 hours was extrapolated from the dose-response curves by different concentrations of the test compound using a second-order polynomial regression model and analyzing with SigmaPlot Software (Systat Software Inc., San Jose, Calif.).

macrophages [3] = experiment: Phagocytosis assay with fluorescent latex beads; format: cell-based, human; conditions: M1 and/or M2 populations, FIG. 6
Method: as §6
The phagocytic activity of macrophages was measured by using flow cytometric analysis. The green fluorescent latex beads (carboxylate-modified beads with diameter 2 μm) were suspended in PBS solution and added into macrophage culture for 2 hours with vortexa at 37° C. The macrophages were subjected to flow cytometry for measurement of fluorescent intensity

M1 macrophages [4] = experiment: Differentiation analysis, cell viability of M1 macrophages; format: cell-based, human
Method: as §1, with “analysis. The cell viability was measured by cell counting kit-8 (CCK-8, Sigma). The half maximal inhibitory concentrations (IC50) of the test compounds on macrophages or dendritic cells were calculated.” for “analysis.”

dendritic cells [5] = experiment: Morphology of dendritic cells by Liu's staining; format: cell-based, human; conditions: 10 μM, seven days, FIG. 8
Method: as §3, §4, §5
(§8) Cells were transferred to a glass coverslide and covered with solution A (0.5 g of methylene blue and 1.7 g of Eosin yellow dissolved in 1,000 ml of ethanol). After 45 seconds, solution B (1.3 g of azure, 1.4 g of methylene blue, 23.38 g of Na2HPO4, 6.5 g of KH2PO4, dissolved in 1,000 ml of distilled water) was added in the proportion of 2 parts of B to 1 part of A. Mixed the solutions well by blowing the surface. The slide was left standing for 90 seconds and then washed off the staining solution rapidly by running water. The morphology of stained cells was then examined under microscope.
(§9) In this example, the effects of the present compounds on dendritic cells were investigated. Briefly, the dendritic cells were respectively treated with 10 μM of Mib-5, Mib-6, Mib-7, Mib-8, or Mib-10. Seven days later, the cells were harvested and subjected to analysis of morphology observation, cell viability, and/or cell marker expression.

M1 macrophages [6] = experiment: Cell marker expression on M1 macrophages, flow cytometry; format: cell-based, human
Method: as §1, §2

macrophages [7] = experiment: Cell marker expression on macrophages (total), flow cytometry; format: cell-based, human
Method: as §3, §4, §5, §6, §2

macrophages [8] = experiment: Morphology of macrophages (photographs, Liu's staining); format: cell-based, human
Method: as §3, §4, §5, §6, §8

dendritic cells [9] = experiment: Trypan blue exclusion analysis of dendritic cells; format: cell-based, human; conditions: 10 μM, seven days, FIG. 7
Method: as §3, §4, §5, §7, §9

dendritic cells [10] = experiment: Cell marker expression on dendritic cells, flow cytometry; format: cell-based, human; conditions: 10 μM
Method: as §3, §4, §5, §2, §9

M2 macrophages [11] = experiment: Differentiation analysis, cell viability of M2 macrophages; format: cell-based, human
Method: as §1, with “analysis. The cell viability was measured by cell counting kit-8 (CCK-8, Sigma). The half maximal inhibitory concentrations (IC50) of the test compounds on macrophages or dendritic cells were calculated.” for “analysis.”

IC50 (rat PFTase): ~47 µM and 47 µM
SMILES: COC1=CC(=O)[C@@]2(c3cc(=O)c4ccc(O)cc4o3)[C@H](C[C@]3(C)[C@@H](C(=O)O)CC=C4[C@H]3CCCC4(C)C)C(C)=CC[C@H]2C1=O [Mib-9]

IC50 (rat PFTase): < 10 µM and 4.97 µM
SMILES: COC1=CC(=O)[C@@]2(c3cc(=O)c4c(O)cc(OC)cc4o3)[C@H](C[C@]3(C)[C@@H](C(=O)O)CC=C4[C@H]3CCCC4(C)C)C(C)=CC[C@H]2C1=O [Mib-6]
CD14: M2 population after treatment (M2 macrophages [1]; Table 5): significant decrease
CD206: change in M2 (M2 macrophages [1]; Table 7): increase
CD80 expression on M2 macrophages (M2 macrophages [1]; control 47.64%): 41.4%
CD14 expression on M2 macrophages (M2 macrophages [1]; control 55.66%): 91.25%
CD206 expression on M2 macrophages (M2 macrophages [1]; control 74.49%): 77.78%
cell viability / cytotoxicity toward macrophages (macrophages [2]): slight toxicity; also recorded: no significant cytotoxicity
phagocytic activity compared with control (macrophages [3]): not
Cell viability of M1 macrophages (M1 macrophages [4]; LPS-induced M1 differentiation, 6 days, control 100%): 57.2%
change in M1 population of macrophages compared with control (M1 macrophages [4]; Table 4): significant reduction
dendritic cell morphology compared with control group (dendritic cells [5]): cell death reflected in morphology changes, and less dendritic process
CD14: M1 population after treatment (M1 macrophages [6]; Table 5): remained relatively unchanged
CD80: change in M1 population (M1 macrophages [6]; Table 6): reduction
CD206: change in M1 (M1 macrophages [6]; Table 7): significant decrease
CD206 expression on M1 macrophages (M1 macrophages [6]; control 14.27%): 4.52%
CD80 expression on M1 macrophages (M1 macrophages [6]; control 71.34%): 6.59%
CD14 expression on M1 macrophages (M1 macrophages [6]; control 99.83%): 86.43%
total expressed level of CD14 (macrophages [7]; FIG. 3): not affected
level of CD206 (macrophages [7]; FIG. 5): increase
total level of CD80 (macrophages [7]; compared with the control): significantly reduced
morphology and adhesion of treated macrophages (macrophages [8]; 10 μM, FIG. 1 panel B): became rounded up, and were less adhesive
morphology of cells by Liu's staining compared with control cells (macrophages [8]; FIG. 1 panel C): not significantly affected
levels of viable dendritic cells (dendritic cells [9]): reduced
expression of CD1a, differentiation marker of dendritic cells (dendritic cells [10]; FIG. 9): inhibited
expression of CD83, maturation marker of dendritic cells (dendritic cells [10]; FIG. 10): inhibited
Cell viability of M2 macrophages (M2 macrophages [11]; IL-4-induced M2 differentiation, 6 days, control 100%): 90.6%
change in M2 population of macrophages compared with control (M2 macrophages [11]; Table 4): slight decrease

IC50 (rat PFTase): 0.13 ± 0.03 µM
SMILES: CSCC[C@H](NC(=O)c1ccc(NC(=O)[C@@H](N)CS)cc1)C(=O)O [FTase Inhibitor II, reference compound]
